Measured values taken from patent US20240132431A1, “METHOD FOR ALKYLATING ACIDIC FUNCTIONAL GROUP” (Chugai Seiyaku Kabushiki Kaisha, priority 2021, published 2024).

Target: T1, Bcl-2 protein (Recombinant Human Bcl-2 Protein) (Homo sapiens, UniProt P10415)
T1 construct: purchased Novus NBP2-34889
Assay: Binding evaluation of mixture library compounds to Bcl-2 using AS-MS (affinity selection mass spectrometry)
In short: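 Readout is ASMS Ratio (%), (A−C)/B×100, from reversed-phase LC/MS of SEC-passed extracts, with protein-free unfiltered standard (B) and protein-free SEC blank (C). Recombinant human Bcl-2 at 20 μM final met ~1200 pooled compounds at […] each for 1 h, 23° C., dark, in Tris-HCl pH 7.4 buffer.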

T1 sequence (P10415 whole entry): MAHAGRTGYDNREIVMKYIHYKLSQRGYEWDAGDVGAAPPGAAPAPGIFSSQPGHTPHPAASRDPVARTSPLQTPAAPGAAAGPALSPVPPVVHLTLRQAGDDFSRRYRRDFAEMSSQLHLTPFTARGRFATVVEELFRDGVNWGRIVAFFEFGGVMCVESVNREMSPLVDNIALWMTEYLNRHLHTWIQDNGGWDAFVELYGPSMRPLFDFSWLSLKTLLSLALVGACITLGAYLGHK

Row | SMILES | ASMS ratio (%) (n = 1) | ASMS ratio (%) (n = 2)
1 | CCOc1cccc(-c2ccc(C(C)N3CCN(c4ccc(C(=O)NS(=O)(=O)C(C)(C)C)cc4)CC3)cc2)c1 (centres unmarked) [B2L097-01, N-tert-Butylsulfonyl-4-[4-[1-[4-(3-ethoxyphenyl)phenyl]ethyl]piperazin-1-yl]benzamide] | 0.0 | 0.0
2 | CCOc1cncc(-c2ccc(C(C)N3CCN(c4ccc(C(=O)NS(=O)(=O)C(C)(C)C)cc4)CC3)cc2)c1 (centres unmarked) [B2L098-01, N-tert-Butylsulfonyl-4-[4-[1-[4-(5-ethoxypyridin-3-yl)phenyl]ethyl]piperazin-1-yl]benzamide] | 3.9 | −5.0
3 | CCOc1cncc(-c2ccc(C(C)N3CCN(c4ccc(C(=O)NS(=O)(=O)C(C)(C)C)cc4)CC3)c(F)c2)c1 (centres unmarked) [B2L100-01, N-tert-Butylsulfonyl-4-[4-[1-[4-(5-ethoxypyridin-3-yl)-2-fluorophenyl]ethyl]piperazin-1-yl]benzamide] | 0.0 | 0.0
4 | CCOc1cccc(-c2csc(C(=O)N3CCN(c4ccc(C(=O)NS(=O)(=O)CCC(F)(F)F)nn4)CC3)c2)c1 [B2N001-01, 6-[4-[4-(3-Ethoxyphenyl)thiophene-2-carbonyl]piperazin-1-yl]-N-(3,3,3-trifluoropropylsulfonyl)pyridazine-3-carboxamide] | – | 0.0
5 | CCOc1cncc(-c2csc(C(=O)N3CCN(c4ccc(C(=O)NS(=O)(=O)CCC(F)(F)F)nn4)CC3)c2)c1 [B2N002-01, 6-[4-[4-(5-Ethoxypyridin-3-yl)thiophene-2-carbonyl]piperazin-1-yl]-N-(3,3,3-trifluoropropylsulfonyl)pyridazine-3-carboxamide] | 0.0 | 0.0
6 | CCOc1cccc(-c2ccc(C(=O)N3CCN(c4ccc(C(=O)NS(=O)(=O)CCC(F)(F)F)nn4)CC3)cc2C)c1 [B2N003-01, 6-[4-[4-(3-Ethoxyphenyl)-3-methylbenzoyl]piperazin-1-yl]-N-(3,3,3-trifluoropropylsulfonyl)pyridazine-3-carboxamide] | 0.0 | 0.0
7 | CCOc1cncc(-c2ccc(C(=O)N3CCN(c4ccc(C(=O)NS(=O)(=O)CCC(F)(F)F)nn4)CC3)cc2C)c1 [B2N004-01, 6-[4-[4-(5-Ethoxypyridin-3-yl)-3-methylbenzoyl]piperazin-1-yl]-N-(3,3,3-trifluoropropylsulfonyl)pyridazine-3-carboxamide] | 1.2 | −2.0
8 | CCOc1cccc(C#Cc2ccccc2C(=O)N2CCN(c3ccc(C(=O)NS(=O)(=O)CCC(F)(F)F)nn3)CC2)c1 [B2N007-01, 6-[4-[2-[2-(3-Ethoxyphenyl)ethynyl]benzoyl]piperazin-1-yl]-N-(3,3,3-trifluoropropylsulfonyl)pyridazine-3-carboxamide] | 0.0 | 0.0
9 | CCOc1cncc(C#Cc2ccccc2C(=O)N2CCN(c3ccc(C(=O)NS(=O)(=O)CCC(F)(F)F)nn3)CC2)c1 [B2N008-01, 6-[4-[2-[2-(5-Ethoxypyridin-3-yl)ethynyl]benzoyl]piperazin-1-yl]-N-(3,3,3-trifluoropropylsulfonyl)pyridazine-3-carboxamide] | 0.0 | −0.4
10 | CCOc1cccc(C#Cc2cncc(C(=O)N3CCN(c4ccc(C(=O)NS(=O)(=O)CCC(F)(F)F)nn4)CC3)c2)c1 [B2N009-01, 6-[4-[5-[2-(3-Ethoxyphenyl)ethynyl]pyridine-3-carbonyl]piperazin-1-yl]-N-(3,3,3-trifluoropropylsulfonyl)pyridazine-3-carboxamide] | 0.0 | −0.4

Now from value to molecule:

Row | ASMS ratio (%) (n = 1) | ASMS ratio (%) (n = 2) | SMILES
11 | 1.9 | −24.6 | CCOc1cccc(-c2cc(CN3CCN(c4ccc(C(=O)NS(=O)(=O)C(C)(C)C)nn4)CC3)cc(C(F)(F)F)c2)c1 [B2L087-01, N-tert-Butylsulfonyl-6-[4-[[3-(3-ethoxyphenyl)-5-(trifluoromethyl)phenyl]methyl]piperazin-1-yl]pyridazine-3-carboxamide]
12 | 0.0 | 2.8 | CCOc1cncc(-c2cc(CN3CCN(c4ccc(C(=O)NS(=O)(=O)C(C)(C)C)nn4)CC3)cc(C(F)(F)F)c2)c1 [B2L088-01, N-tert-Butylsulfonyl-6-[4-[[3-(5-ethoxypyridin-3-yl)-5-(trifluoromethyl)phenyl]methyl]piperazin-1-yl]pyridazine-3-carboxamide]
13 | 0.0 | 0.0 | CCOc1cccc(-c2cc(CN3CCN(c4ccc(C(=O)NS(=O)(=O)C(C)(C)C)nn4)CC3)cc(OC(F)(F)F)c2)c1 [B2L089-01, N-tert-Butylsulfonyl-6-[4-[[3-(3-ethoxyphenyl)-5-(trifluoromethoxy)phenyl]methyl]piperazin-1-yl]pyridazine-3-carboxamide]
14 | 0.0 | 0.0 | CCOc1cncc(-c2cc(CN3CCN(c4ccc(C(=O)NS(=O)(=O)C(C)(C)C)nn4)CC3)cc(OC(F)(F)F)c2)c1 [B2L090-01, N-tert-Butylsulfonyl-6-[4-[[3-(5-ethoxypyridin-3-yl)-5-(trifluoromethoxy)phenyl]methyl]piperazin-1-yl]pyridazine-3-carboxamide]
15 | 0.0 | 0.0 | CCOc1cccc(-c2ccc(CN3CCN(c4ccc(C(=O)NS(=O)(=O)C(C)(C)C)nn4)CC3)c3ccccc23)c1 [B2L091-01, N-tert-Butylsulfonyl-6-[4-[[4-(3-ethoxyphenyl)naphthalen-1-yl]methyl]piperazin-1-yl]pyridazine-3-carboxamide]
16 | 5.5 | 7.8 | CCOc1cncc(-c2ccc(CN3CCN(c4ccc(C(=O)NS(=O)(=O)C(C)(C)C)nn4)CC3)c3ccccc23)c1 [B2L092-01, N-tert-Butylsulfonyl-6-[4-[[4-(5-ethoxypyridin-3-yl)naphthalen-1-yl]methyl]piperazin-1-yl]pyridazine-3-carboxamide]
17 | – | 0.0 | CCOc1cccc(-c2csc(CN3CCN(c4ccc(C(=O)NS(=O)(=O)C(C)(C)C)nn4)CC3)c2)c1 [B2L093-01, N-tert-Butylsulfonyl-6-[4-[[4-(3-ethoxyphenyl)thiophen-2-yl]methyl]piperazin-1-yl]pyridazine-3-carboxamide]
18 | 0.2 | 1.8 | CCOc1cncc(-c2csc(CN3CCN(c4ccc(C(=O)NS(=O)(=O)C(C)(C)C)nn4)CC3)c2)c1 [B2L094-01, N-tert-Butylsulfonyl-6-[4-[[4-(5-ethoxypyridin-3-yl)thiophen-2-yl]methyl]piperazin-1-yl]pyridazine-3-carboxamide]
19 | 0.0 | 0.0 | CCOc1cccc(C#Cc2ccccc2CN2CCN(c3ccc(C(=O)NS(=O)(=O)C(C)(C)C)nn3)CC2)c1 [B2L095-01, N-tert-Butylsulfonyl-6-[4-[[2-[2-(3-ethoxyphenyl)ethynyl]phenyl]methyl]piperazin-1-yl]pyridazine-3-carboxamide]
20 | 0.0 | 0.0 | CCOc1cncc(C#Cc2ccccc2CN2CCN(c3ccc(C(=O)NS(=O)(=O)C(C)(C)C)nn3)CC2)c1 [B2L096-01, N-tert-Butylsulfonyl-6-[4-[[2-[2-(5-ethoxypyridin-3-yl)ethynyl]phenyl]methyl]piperazin-1-yl]pyridazine-3-carboxamide]
